Data reported in patent US12077503B2, “Substituted cyclic amides and their use as herbicides” (FMC CORPORATION, priority 2015, dated 2024).

Tests used:
Type in all cases: in vivo
[1] = test system: Kochia (Kochia scoparia); assay: Test A preemergence
Summary of the method: (§1)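 Compounds were formulated in a non-phytotoxic solvent mixture with surfactant and applied as a preemergence directed soil spray after seeding, or sprayed postemergence over plants 2 to 10 cm tall at the one- to two-leaf stage. Evaluation after about 10 d compared treated with untreated controls, using a scale from 0 (no effect) to 100 (complete control).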

[2] = test system: barnyardgrass (Echinochloa crus-galli); assay: Test A preemergence
Summary of the method: as §1

[3] = test system: giant foxtail (Setaria faberii); assay: Test A preemergence
Summary of the method: as §1

[4] = test system: pigweed (Amaranthus retroflexus); assay: Test A preemergence
[5] = test system: ragweed (common ragweed, Ambrosia elatior); assay: Test A preemergence
Summary of the method: as §1

[6] = test system: ryegrass, Italian (Italian ryegrass, Lolium multiflorum); assay: Test A preemergence
Summary of the method: as §1

[7] = test system: Galium (catchweed bedstraw, Galium aparine); assay: Test A postemergence
Summary of the method: as §1

[8] = test system: Kochia (Kochia scoparia); assay: Test A postemergence
Summary of the method: as §1

[9] = test system: barnyardgrass (Echinochloa crus-galli); assay: Test A postemergence
Summary of the method: as §1

[10] = test system: blackgrass (Alopecurus myosuroides); assay: Test A postemergence
Summary of the method: as §1

[11] = test system: corn (Zea mays); assay: Test A postemergence
Summary of the method: as §1

[12] = test system: giant foxtail (Setaria faberii); assay: Test A postemergence
Summary of the method: as §1

[13] = test system: pigweed (Amaranthus retroflexus); assay: Test A postemergence
Summary of the method: as §1

[14] = test system: ragweed (common ragweed, Ambrosia elatior); assay: Test A postemergence
Summary of the method: as §1

[15] = test system: ryegrass, Italian (Italian ryegrass, Lolium multiflorum); assay: Test A postemergence
Summary of the method: as §1

[16] = test system: wheat (Triticum aestivum); assay: Test A postemergence
Summary of the method: as §1

[17] = test system: barnyardgrass (Echinochloa crus-galli); assay: Test B flooded paddy test; conditions: 250 g ai/ha, Flood, 0 to 100 scale where 0 is no effect and 100 is complete control
Summary of the method: (§2)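 Flooding to 3 cm over soil accompanied treatment, which consisted of adding compound to the standing water around 2-leaf plants; depth was then maintained. Visual assessment versus controls followed at 13 to 15 d (scale 0–100, 0 meaning no effect).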

[18] = test system: ducksalad (Heteranthera limosa); assay: Test B flooded paddy test; conditions: 250 g ai/ha, Flood, 0 to 100 scale where 0 is no effect and 100 is complete control
Summary of the method: as §2

[19] = test system: rice (Oryra sativa); assay: Test B flooded paddy test; conditions: 250 g ai/ha, Flood, 0 to 100 scale where 0 is no effect and 100 is complete control
Summary of the method: as §2

[20] = test system: sedge, umbrella (small-flower umbrella sedge, Cyperus difformis); assay: Test B flooded paddy test; conditions: 250 g ai/ha, Flood, 0 to 100 scale where 0 is no effect and 100 is complete control
Summary of the method: as §2

[21] = 125 g ai/ha, preemergence, 0 to 100 scale (0 no effect, 100 complete control)
[22] = Preemergence, 500 g ai/ha, visual injury approx. 10 d
[23] = 125 g ai/ha, postemergence, visual injury rating on 0 to 100 scale (0 no effect, 100 complete control), approx. 10 d
[24] = 500 g ai/ha, postemergence, 0 to 100 scale, 0 no effect, 100 complete control

## O=C1NC[C@H](c2ccc(Cl)c(F)c2)[C@H]1C(=O)Nc1cccc(F)c1F [Compound 1262]
[1]; Bassia scoparia, pre-emergence, 240 h, 31 g ai/ha, Preemergence, 0 to 100 scale where 0 is no effect and 100 is complete control, read-out: Kochia plant response rating
  pest or weed control at 31 g/ha: 20%
[1]; Bassia scoparia, pre-emergence, 240 h, 125 g ai/ha, preemergence, visual injury rating, 0 to 100 scale where 0 is no effect and 100 is complete control, approximately 10 d, read-out: Kochia plant response rating
  pest or weed control at 125 g/ha: 60%
[2]; Echinochloa crus-galli, pre-emergence, 240 h, 31 g ai/ha, Preemergence, 0 to 100 scale where 0 is no effect and 100 is complete control, read-out: Barnyardgrass plant response rating
  pest or weed control at 31 g/ha: 70%
[2]; Echinochloa crus-galli, pre-emergence, 240 h, 125 g ai/ha, preemergence, visual injury rating, 0 to 100 scale where 0 is no effect and 100 is complete control, approximately 10 d, read-out: Barnyardgrass plant response rating
  pest or weed control at 125 g/ha: 90%
[3]; Setaria faberi, pre-emergence, 240 h, 31 g ai/ha, Preemergence, 0 to 100 scale where 0 is no effect and 100 is complete control, read-out: Foxtail, Giant plant response rating
  pest or weed control at 31 g/ha: 90%
[3]; Setaria faberi, pre-emergence, 240 h, 125 g ai/ha, preemergence, visual injury rating, 0 to 100 scale where 0 is no effect and 100 is complete control, approximately 10 d, read-out: Foxtail, Giant plant response rating
  pest or weed control at 125 g/ha: 90%
[4]; Amaranthus retroflexus, pre-emergence, 240 h, 31 g ai/ha, Preemergence, 0 to 100 scale where 0 is no effect and 100 is complete control, read-out: Pigweed plant response rating
  pest or weed control at 31 g/ha: 0%
[4]; Amaranthus retroflexus, pre-emergence, 240 h, 125 g ai/ha, preemergence, visual injury rating, 0 to 100 scale where 0 is no effect and 100 is complete control, approximately 10 d, read-out: Pigweed plant response rating
  pest or weed control at 125 g/ha: 50%
[5]; Ambrosia artemisiifolia, pre-emergence, 240 h, 31 g ai/ha, Preemergence, 0 to 100 scale where 0 is no effect and 100 is complete control, read-out: Ragweed plant response rating
  pest or weed control at 31 g/ha: 0%
[5]; Ambrosia artemisiifolia, pre-emergence, 240 h, 125 g ai/ha, preemergence, visual injury rating, 0 to 100 scale where 0 is no effect and 100 is complete control, approximately 10 d, read-out: Ragweed plant response rating
  pest or weed control at 125 g/ha: 0%
[6]; Lolium multiflorum, pre-emergence, 240 h, 31 g ai/ha, Preemergence, 0 to 100 scale where 0 is no effect and 100 is complete control, read-out: Ryegrass, Italian plant response rating
  pest or weed control at 31 g/ha: 0%
[6]; Lolium multiflorum, pre-emergence, 240 h, 125 g ai/ha, preemergence, visual injury rating, 0 to 100 scale where 0 is no effect and 100 is complete control, approximately 10 d, read-out: Ryegrass, Italian plant response rating
  pest or weed control at 125 g/ha: 0%
[7]; Galium, post-emergence, 240 h, 125 g ai/ha, postemergence, visual injury vs untreated controls after approx. 10 d, 0 = no effect, 100 = complete control, read-out: Galium plant response rating (0 to 100 scale)
  pest or weed control at 125 g/ha: 70%
[7]; Galium, post-emergence, 240 h, Postemergence, 31 g ai/ha, 0 is no effect, 100 is complete control, read-out: Galium plant response rating (0 to 100 scale)
  pest or weed control at 31 g/ha: 30%
[8]; Bassia scoparia, post-emergence, 240 h, 125 g ai/ha, postemergence, visual injury vs untreated controls after approx. 10 d, 0 = no effect, 100 = complete control, read-out: Kochia plant response rating (0 to 100 scale)
  pest or weed control at 125 g/ha: 50%
[8]; Bassia scoparia, post-emergence, 240 h, Postemergence, 31 g ai/ha, 0 is no effect, 100 is complete control, read-out: Kochia plant response rating (0 to 100 scale)
  pest or weed control at 31 g/ha: 20%
[9]; Echinochloa crus-galli, post-emergence, 240 h, 125 g ai/ha, postemergence, visual injury vs untreated controls after approx. 10 d, 0 = no effect, 100 = complete control, read-out: Barnyardgrass plant response rating (0 to 100 scale)
  pest or weed control at 125 g/ha: 90%
[9]; Echinochloa crus-galli, post-emergence, 240 h, Postemergence, 31 g ai/ha, 0 is no effect, 100 is complete control, read-out: Barnyardgrass plant response rating (0 to 100 scale)
  pest or weed control at 31 g/ha: 70%
[10]; Alopecurus myosuroides, post-emergence, 240 h, 125 g ai/ha, postemergence, visual injury vs untreated controls after approx. 10 d, 0 = no effect, 100 = complete control, read-out: Blackgrass plant response rating (0 to 100 scale)
  pest or weed control at 125 g/ha: 50%
[10]; Alopecurus myosuroides, post-emergence, 240 h, Postemergence, 31 g ai/ha, 0 is no effect, 100 is complete control, read-out: Blackgrass plant response rating (0 to 100 scale)
  pest or weed control at 31 g/ha: 0%
[11]; Zea mays, post-emergence, 240 h, 125 g ai/ha, postemergence, visual injury vs untreated controls after approx. 10 d, 0 = no effect, 100 = complete control, read-out: Corn plant response rating (0 to 100 scale)
  plant injury at 125 g/ha: 60%
[11]; Zea mays, post-emergence, 240 h, Postemergence, 31 g ai/ha, 0 is no effect, 100 is complete control, read-out: Corn plant response rating (0 to 100 scale)
  plant injury at 31 g/ha: 20%
[12]; Setaria faberi, post-emergence, 240 h, 125 g ai/ha, postemergence, visual injury vs untreated controls after approx. 10 d, 0 = no effect, 100 = complete control, read-out: Foxtail, Giant plant response rating (0 to 100 scale)
  pest or weed control at 125 g/ha: 80%
[12]; Setaria faberi, post-emergence, 240 h, Postemergence, 31 g ai/ha, 0 is no effect, 100 is complete control, read-out: Foxtail, Giant plant response rating (0 to 100 scale)
  pest or weed control at 31 g/ha: 70%
[13]; Amaranthus retroflexus, post-emergence, 240 h, 125 g ai/ha, postemergence, visual injury vs untreated controls after approx. 10 d, 0 = no effect, 100 = complete control, read-out: Pigweed plant response rating (0 to 100 scale)
  pest or weed control at 125 g/ha: 70%
[13]; Amaranthus retroflexus, post-emergence, 240 h, Postemergence, 31 g ai/ha, 0 is no effect, 100 is complete control, read-out: Pigweed plant response rating (0 to 100 scale)
  pest or weed control at 31 g/ha: 30%
[14]; Ambrosia artemisiifolia, post-emergence, 240 h, 125 g ai/ha, postemergence, visual injury vs untreated controls after approx. 10 d, 0 = no effect, 100 = complete control, read-out: Ragweed plant response rating (0 to 100 scale)
  pest or weed control at 125 g/ha: 30%
[14]; Ambrosia artemisiifolia, post-emergence, 240 h, Postemergence, 31 g ai/ha, 0 is no effect, 100 is complete control, read-out: Ragweed plant response rating (0 to 100 scale)
  pest or weed control at 31 g/ha: 0%
[15]; Lolium multiflorum, post-emergence, 240 h, 125 g ai/ha, postemergence, visual injury vs untreated controls after approx. 10 d, 0 = no effect, 100 = complete control, read-out: Ryegrass, Italian plant response rating (0 to 100 scale)
  pest or weed control at 125 g/ha: 20%
[15]; Lolium multiflorum, post-emergence, 240 h, Postemergence, 31 g ai/ha, 0 is no effect, 100 is complete control, read-out: Ryegrass, Italian plant response rating (0 to 100 scale)
  pest or weed control at 31 g/ha: 0%
[16]; Triticum aestivum, post-emergence, 240 h, Postemergence, 31 g ai/ha, 0 is no effect, 100 is complete control, read-out: Wheat plant response rating (0 to 100 scale)
  plant injury at 31 g/ha: 0%
[17]; Echinochloa crus-galli, read-out: Barnyardgrass plant response rating
  pest or weed control at 250 g/ha: 65%
[18]; Heteranthera limosa, read-out: Ducksalad plant response rating
  pest or weed control at 250 g/ha: 100%
[19]; Oryza sativa, read-out: Rice plant response rating
  pest or weed control at 250 g/ha: 10%
[20]; Cyperus difformis, read-out: Sedge, Umbrella plant response rating
  pest or weed control at 250 g/ha: 0%

## CN1CC(c2ccc(C(F)(F)F)c(F)c2)C(C(=O)Nc2ccccc2F)C1=O (centres unmarked) [Compound 399]
[1]; [21]
  Plant response rating, Kochia: 80
[1]; [22]
  Kochia plant response rating (0 to 100 scale, 0 is no effect, 100 is complete control): 80
[2]; [21]
  Plant response rating, Barnyardgrass: 90
[2]; [22]
  Barnyardgrass plant response rating (0 to 100 scale, 0 is no effect, 100 is complete control): 90
[3]; [21]
  Plant response rating, Foxtail, Giant: 90
[3]; [22]
  Foxtail, Giant plant response rating (0 to 100 scale, 0 is no effect, 100 is complete control): 90
[4]; [21]
  Plant response rating, Pigweed: 70
[4]; [22]
  Pigweed plant response rating (0 to 100 scale, 0 is no effect, 100 is complete control): 90
[5]; [21]
  Plant response rating, Ragweed: 50
[5]; [22]
  Ragweed plant response rating (0 to 100 scale, 0 is no effect, 100 is complete control): 50
[6]; [21]
  Plant response rating, Ryegrass, Italian: 20
[6]; [22]
  Ryegrass, Italian plant response rating (0 to 100 scale, 0 is no effect, 100 is complete control): 60
[7]; [23]
  Galium plant response rating: 50
[7]; [24]
  Plant response rating, Galium: 50
[8]; [23]
  Kochia plant response rating: 50
[8]; [24]
  Plant response rating, Kochia: 60
[9]; [23]
  Barnyardgrass plant response rating: 90
[9]; [24]
  Plant response rating, Barnyardgrass: 90
[10]; [23]
  Blackgrass plant response rating: 40
[10]; [24]
  Plant response rating, Blackgrass: 60
[11]; [23]
  Corn plant response rating: 50
[11]; [24]
  Plant response rating, Corn: 70
[12]; [23]
  Foxtail, Giant plant response rating: 90
[12]; [24]
  Plant response rating, Foxtail, Giant: 90
[13]; [23]
  Pigweed plant response rating: 30
[13]; [24]
  Plant response rating, Pigweed: 40
[14]; [23]
  Ragweed plant response rating: 0
[14]; [24]
  Plant response rating, Ragweed: 0
[15]; [23]
  Ryegrass, Italian plant response rating: 40
[15]; [24]
  Plant response rating, Ryegrass, Italian: 40
[16]; [23]
  Wheat plant response rating: 40
[16]; [24]
  Plant response rating, Wheat: 60
[17]; 13 to 15 d
  Plant response rating, Barnyardgrass: 65
[18]; 13 to 15 d
  Plant response rating, Ducksalad: 100
[19]; 13 to 15 d
  Plant response rating, Rice: 0
[20]; 13 to 15 d
  Plant response rating, Sedge, Umbrella: 0
